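These data come from cells grown in 96-well plates and exposed to compound for 48 hours at five concentrations. TGI marks complete inhibition of growth.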
Tests used:
Assay in all cases: inhibition of tumour cell growth, NCI panel, 48 h
[1] = tested on: 786-0 renal
[2] = tested on: A498 renal
[3] = tested on: A549 NSCLC
[4] = tested on: ACHN renal
[5] = tested on: BT-549 breast
[6] = tested on: CAKI-1 renal
[7] = tested on: COLO 205 colon
[8] = tested on: DU-145 prostate
[9] = tested on: EKVX NSCLC
[10] = tested on: HCC-2998 colon
[11] = tested on: HCT-116 colon
[12] = tested on: HCT-15 colon
[13] = tested on: HOP-62 NSCLC
[14] = tested on: HOP-92 NSCLC
[15] = tested on: HS 578T breast
[16] = tested on: HT29 colon
[17] = tested on: IGROV1 ovarian
[18] = tested on: K-562 leukemia
[19] = tested on: KM12 colon
[20] = tested on: LOX IMVI melanoma
[21] = tested on: M14 melanoma
[22] = tested on: MALME-3M melanoma
[23] = tested on: MCF7 breast
[24] = tested on: MDA-MB-231 breast
[25] = tested on: MDA-MB-435
[26] = tested on: MDA-N
[27] = tested on: MOLT-4 leukemia
[28] = tested on: NCI-H226 lung
[29] = tested on: NCI-H23 lung
[30] = tested on: NCI-H460 lung
[31] = tested on: NCI-H522 lung
[32] = tested on: NCI/ADR-RES ovarian
[33] = tested on: OVCAR-3 ovarian
[34] = tested on: OVCAR-4 ovarian
[35] = tested on: OVCAR-5 ovarian
[36] = tested on: OVCAR-8 ovarian
[37] = tested on: PC-3 prostate
[38] = tested on: RPMI-8226 leukemia
[39] = tested on: RXF 393 renal
[40] = tested on: SF-268 CNS
[41] = tested on: SF-295 CNS
[42] = tested on: SF-539 CNS
[43] = tested on: SK-MEL-2 melanoma
[44] = tested on: SK-MEL-28 melanoma
[45] = tested on: SK-OV-3 ovarian
[46] = tested on: SN12C renal
[47] = tested on: SNB-19 CNS
[48] = tested on: SNB-75 CNS
[49] = tested on: SW-620 colon
[50] = tested on: T-47D breast
[51] = tested on: TK-10 renal
[52] = tested on: U251 CNS
[53] = tested on: UACC-257 melanoma
[54] = tested on: UACC-62 melanoma
[55] = tested on: UO-31 renal
[56] = tested on: CCRF-CEM leukemia
[57] = tested on: HL-60(TB) leukemia
[58] = tested on: SK-MEL-5 melanoma
[59] = tested on: SR leukemia

Molecule `CCCCSC1=N/C(=C\c2ccc(N(C)C)cc2)C(Cl)=N1` has a TGI [1] greater than 100 µM, a TGI [2] greater than 100 µM and a TGI [3] greater than 100 µM. The TGI [4] was greater than 100 µM, the TGI [5] was greater than 100 µM and the TGI [6] was greater than 100 µM. The TGI [7] was greater than 100 µM, the TGI [8] was greater than 100 µM and the TGI [9] was greater than 100 µM. For the same molecule, the TGI [10] was greater than 100 µM, the TGI [11] was greater than 100 µM and the TGI [12] was greater than 100 µM. The TGI [13] was greater than 100 µM, the TGI [14] was greater than 100 µM and the TGI [15] was greater than 100 µM. The TGI [16] was greater than 100 µM, the TGI [17] was greater than 100 µM and the TGI [18] was greater than 100 µM. The TGI [19] was greater than 100 µM, the TGI [20] was greater than 100 µM and the TGI [21] was greater than 100 µM. The TGI [22] was greater than 100 µM, the TGI [23] was greater than 100 µM and the TGI [24] was greater than 100 µM. It also gave a TGI [25] greater than 100 µM, a TGI [26] greater than 100 µM and a TGI [27] greater than 100 µM. For the same molecule, the TGI [28] was greater than 100 µM, the TGI [29] was greater than 100 µM and the TGI [30] was greater than 100 µM. It also gave a TGI [31] greater than 100 µM, a TGI [32] greater than 100 µM and a TGI [33] greater than 100 µM. The TGI [34] was greater than 100 µM, the TGI [35] was greater than 100 µM and the TGI [36] was greater than 100 µM. It also gave a TGI [37] greater than 100 µM, a TGI [38] greater than 100 µM and a TGI [39] greater than 100 µM. It also gave a TGI [40] greater than 100 µM, a TGI [41] greater than 100 µM and a TGI [42] greater than 100 µM. The TGI [43] was greater than 100 µM, the TGI [44] was greater than 100 µM and the TGI [45] was greater than 100 µM. The TGI [46] was greater than 100 µM, the TGI [47] was greater than 100 µM and the TGI [48] was greater than 100 µM. The TGI [49] was greater than 100 µM, the TGI [50] was greater than 100 µM and the TGI [51] was greater than 100 µM. It also gave a TGI [52] greater than 100 µM, a TGI [53] greater than 100 µM and a TGI [54] greater than 100 µM. For the same molecule, the TGI [55] was greater than 100 µM.
`COc1ccc2c(c1)C(=O)[C@@](Nc1ccc(C=O)cc1)(OC)[C@@](OC)(c1ccc([N+](=O)[O-])cc1)O2` showed a TGI [1] greater than 10 µM, a TGI [2] greater than 10 µM and a TGI [3] greater than 10 µM. The TGI [4] was greater than 10 µM, the TGI [5] was greater than 10 µM and the TGI [6] was greater than 10 µM. For the same molecule, the TGI [56] was greater than 10 µM, the TGI [7] was greater than 10 µM and the TGI [8] was greater than 10 µM. It also gave a TGI [9] greater than 10 µM, a TGI [10] greater than 10 µM and a TGI [11] greater than 10 µM. For the same molecule, the TGI [12] was greater than 10 µM, the TGI [57] was greater than 10 µM and the TGI [13] was greater than 10 µM. For the same molecule, the TGI [15] was greater than 10 µM, the TGI [16] was greater than 10 µM and the TGI [17] was greater than 10 µM. It also gave a TGI [18] greater than 10 µM, a TGI [19] greater than 10 µM and a TGI [20] greater than 10 µM. It also gave a TGI [21] greater than 10 µM, a TGI [22] greater than 10 µM and a TGI [23] greater than 10 µM. The TGI [24] was greater than 10 µM, the TGI [25] was greater than 10 µM and the TGI [26] was greater than 10 µM. It also gave a TGI [27] greater than 10 µM, a TGI [28] greater than 10 µM and a TGI [29] greater than 10 µM. The TGI [30] was greater than 10 µM, the TGI [32] was greater than 10 µM and the TGI [33] was greater than 10 µM. The TGI [34] was greater than 10 µM, the TGI [35] was greater than 10 µM and the TGI [36] was greater than 10 µM. For the same molecule, the TGI [37] was greater than 10 µM, the TGI [38] was greater than 10 µM and the TGI [39] was greater than 10 µM. For the same molecule, the TGI [40] was greater than 10 µM, the TGI [41] was greater than 10 µM and the TGI [42] was greater than 10 µM. It also gave a TGI [43] greater than 10 µM, a TGI [44] greater than 10 µM and a TGI [58] greater than 10 µM. It also gave a TGI [45] greater than 10 µM, a TGI [46] greater than 10 µM and a TGI [47] greater than 10 µM. For the same molecule, the TGI [48] was greater than 10 µM, the TGI [59] was greater than 10 µM and the TGI [49] was greater than 10 µM. It also gave a TGI [50] greater than 10 µM, a TGI [51] greater than 10 µM and a TGI [52] greater than 10 µM. For the same molecule, the TGI [53] was greater than 10 µM, the TGI [54] was greater than 10 µM and the TGI [55] was greater than 10 µM.
`C#CCOC(=O)[C@@H](C)c1ccc2cc(OC)ccc2c1` showed a TGI [1] greater than 100 µM, a TGI [2] greater than 100 µM and a TGI [4] greater than 100 µM. It also gave a TGI [5] greater than 100 µM, a TGI [6] greater than 100 µM and a TGI [56] greater than 100 µM. For the same molecule, the TGI [7] was greater than 100 µM, the TGI [8] was greater than 100 µM and the TGI [9] was greater than 100 µM. It also gave a TGI [11] greater than 100 µM, a TGI [12] greater than 100 µM and a TGI [57] of 35.8 µM. It also gave a TGI [13] greater than 100 µM, a TGI [14] greater than 100 µM and a TGI [15] greater than 100 µM. For the same molecule, the TGI [17] was greater than 100 µM, the TGI [18] was greater than 100 µM and the TGI [19] was greater than 100 µM. It also gave a TGI [20] greater than 100 µM, a TGI [21] greater than 100 µM and a TGI [23] greater than 100 µM. It also gave a TGI [24] greater than 100 µM, a TGI [25] greater than 100 µM and a TGI [26] greater than 100 µM. It also gave a TGI [27] greater than 100 µM, a TGI [28] greater than 100 µM and a TGI [29] greater than 100 µM. It also gave a TGI [30] greater than 100 µM, a TGI [31] greater than 100 µM and a TGI [32] greater than 100 µM. For the same molecule, the TGI [34] was greater than 100 µM, the TGI [35] was greater than 100 µM and the TGI [36] was greater than 100 µM. The TGI [37] was greater than 100 µM, the TGI [38] was greater than 100 µM and the TGI [39] was greater than 100 µM. For the same molecule, the TGI [40] was greater than 100 µM, the TGI [41] was greater than 100 µM and the TGI [42] was greater than 100 µM. The TGI [43] was greater than 100 µM, the TGI [58] was greater than 100 µM and the TGI [45] was greater than 100 µM. For the same molecule, the TGI [46] was greater than 100 µM, the TGI [47] was greater than 100 µM and the TGI [48] was greater than 100 µM. It also gave a TGI [59] greater than 100 µM, a TGI [49] greater than 100 µM and a TGI [50] greater than 100 µM. For the same molecule, the TGI [51] was greater than 100 µM, the TGI [52] was greater than 100 µM and the TGI [53] was greater than 100 µM. For the same molecule, the TGI [54] was greater than 100 µM and the TGI [55] was greater than 100 µM.
In the case of `C[C@]12CC/C(=N\O)C=C1CC[C@@H]1[C@@H]2CC[C@]2(C)C(=N/O)/C(=C/c3ccncc3)C[C@@H]12`, the TGI [1] is reported as greater than 100 µM, the TGI [3] is reported as greater than 100 µM and the TGI [4] is reported as greater than 100 µM. It also gave a TGI [5] greater than 100 µM, a TGI [6] greater than 100 µM and a TGI [7] greater than 100 µM. It also gave a TGI [8] greater than 100 µM, a TGI [9] greater than 100 µM and a TGI [10] of 59.7 µM. The TGI [11] was 47.4 µM, the TGI [12] was greater than 100 µM and the TGI [57] was 5.09 µM. For the same molecule, the TGI [13] was greater than 100 µM, the TGI [14] was greater than 100 µM and the TGI [15] was greater than 100 µM. It also gave a TGI [16] of 42.1 µM, a TGI [17] greater than 100 µM and a TGI [18] greater than 100 µM. The TGI [19] was greater than 100 µM, the TGI [20] was greater than 100 µM and the TGI [21] was 34 µM. For the same molecule, the TGI [22] was greater than 100 µM, the TGI [23] was 67.9 µM and the TGI [24] was greater than 100 µM. It also gave a TGI [25] of 95.8 µM, a TGI [26] greater than 100 µM and a TGI [27] greater than 100 µM. It also gave a TGI [28] of 87.3 µM, a TGI [29] greater than 100 µM and a TGI [30] of 85 µM. It also gave a TGI [31] of 99.2 µM, a TGI [32] greater than 100 µM and a TGI [33] of 72.3 µM. The TGI [34] was greater than 100 µM, the TGI [35] was greater than 100 µM and the TGI [36] was greater than 100 µM. It also gave a TGI [37] of 62.6 µM, a TGI [38] of 42.7 µM and a TGI [39] greater than 100 µM. The TGI [40] was greater than 100 µM, the TGI [41] was greater than 100 µM and the TGI [42] was greater than 100 µM. For the same molecule, the TGI [43] was 34.2 µM, the TGI [44] was greater than 100 µM and the TGI [58] was 23 µM. The TGI [45] was greater than 100 µM, the TGI [46] was greater than 100 µM and the TGI [47] was greater than 100 µM. For the same molecule, the TGI [48] was greater than 100 µM, the TGI [59] was 62.2 µM and the TGI [49] was greater than 100 µM. For the same molecule, the TGI [50] was 88.5 µM, the TGI [51] was greater than 100 µM and the TGI [52] was greater than 100 µM. It also gave a TGI [53] of 80.2 µM, a TGI [54] of 35 µM and a TGI [55] of 24.3 µM.
